Measured values published in the supplement of paper PMC10307832.

Columns and labels:
Experiment in all cases: relative viability (nuclei count vs DMSO), 5 days (fraction); higher = more cells survive
Bexarotene + Trametinib = compound: C=C(c1ccc(C(=O)O)cc1)c1cc2c(cc1C)C(C)(C)CCC2(C)C [Bexarotene] + CC(=O)Nc1cccc(-n2c(=O)n(C3CC3)c(=O)c3c(Nc4ccc(I)cc4F)n(C)c(=O)c(C)c32)c1 [Trametinib] (partner 0.02 µM)
Summary of the method: (§1)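 Values are medians from duplicate plates. Each reflects relative viability, defined as the nuclei count of treated wells over that of vehicle wells. Lung cancer cell lines in 1536-well plates were pin-tool dosed one day after seeding with one drug alone or with a fixed anchor-drug dose plus five library-drug doses (not always all listed) in √10 steps, then fixed, stained and imaged at 4× after 5 days.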

Bexarotene + Phenformin = compound: C=C(c1ccc(C(=O)O)cc1)c1cc2c(cc1C)C(C)(C)CCC2(C)C [Bexarotene] + N=C(N)NC(=N)NCCc1ccccc1 [Phenformin] (partner 250 µM)
Summary of the method: as §1

Bexarotene + OSI-027 = compound: C=C(c1ccc(C(=O)O)cc1)c1cc2c(cc1C)C(C)(C)CCC2(C)C [Bexarotene] + COc1cccc2cc(-c3nc([C@H]4CC[C@H](C(=O)O)CC4)n4ncnc(N)c34)[nH]c12 [OSI-027] (partner 0.5 µM)
Summary of the method: as §1

Bexarotene = compound: C=C(c1ccc(C(=O)O)cc1)c1cc2c(cc1C)C(C)(C)CCC2(C)C [Bexarotene]
Summary of the method: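 Nuclei counted with MetaXpress define viability as the ratio of treated to vehicle wells, given as a median across plates. The lung cancer cell lines were in 1536-well plates, pinned with five √10-spaced library-drug doses and imaged at 4× after 5 days and Hoechst staining. Plates passed with control CV below 25% and at least one doubling.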

Work on 201T yielded a relative viability (Bexarotene + Trametinib; first compound 0.08 µM) of 0.751, a relative viability (Bexarotene + Trametinib; first compound 0.253 µM) of 0.724 and a relative viability (Bexarotene + Trametinib; first compound 0.8 µM) of 0.713. For the same cell line, the relative viability (Bexarotene + Trametinib; first compound 2.53 µM) was 0.704, the relative viability (Bexarotene + Trametinib; first compound 8 µM) was 0.643 and the relative viability (Bexarotene + Phenformin; first compound 0.08 µM) was 0.582. It also gave a relative viability (Bexarotene + Phenformin; first compound 0.253 µM) of 0.516, a relative viability (Bexarotene + Phenformin; first compound 0.8 µM) of 0.5 and a relative viability (Bexarotene + Phenformin; first compound 2.53 µM) of 0.519. For the same cell line, the relative viability (Bexarotene + Phenformin; first compound 8 µM) was 0.458, the relative viability (Bexarotene + OSI-027; first compound 0.08 µM) was 0.852 and the relative viability (Bexarotene + OSI-027; first compound 0.253 µM) was 0.445. It also gave a relative viability (Bexarotene + OSI-027; first compound 0.8 µM) of 0.757, a relative viability (Bexarotene + OSI-027; first compound 2.53 µM) of 0.639 and a relative viability (Bexarotene + OSI-027; first compound 8 µM) of 0.474. For the same cell line, the relative viability (Bexarotene; 0.08 µM) was 1.02, the relative viability (Bexarotene; 0.253 µM) was 0.989 and the relative viability (Bexarotene; 0.8 µM) was 0.971. For the same cell line, the relative viability (Bexarotene; 2.53 µM) was 0.942 and the relative viability (Bexarotene; 8 µM) was 0.93.
A549 gave a relative viability (Bexarotene + Phenformin; first compound 0.08 µM) of 0.133, a relative viability (Bexarotene + Phenformin; first compound 0.253 µM) of 0.187 and a relative viability (Bexarotene + Phenformin; first compound 0.8 µM) of 0.157. It also gave a relative viability (Bexarotene + Phenformin; first compound 2.53 µM) of 0.18, a relative viability (Bexarotene + Phenformin; first compound 8 µM) of 0.183 and a relative viability (Bexarotene; 0.08 µM) of 1.07. The relative viability (Bexarotene; 0.253 µM) was 0.99, the relative viability (Bexarotene; 0.8 µM) was 0.964 and the relative viability (Bexarotene; 2.53 µM) was 0.933. The relative viability (Bexarotene; 8 µM) was 0.878.
Work on A-427 yielded a relative viability (Bexarotene + Trametinib; first compound 0.08 µM) of 0.726, a relative viability (Bexarotene + Trametinib; first compound 0.253 µM) of 0.643 and a relative viability (Bexarotene + Trametinib; first compound 0.8 µM) of 0.629. It also gave a relative viability (Bexarotene + Trametinib; first compound 2.53 µM) of 0.517, a relative viability (Bexarotene + Trametinib; first compound 8 µM) of 0.599 and a relative viability (Bexarotene + Phenformin; first compound 0.08 µM) of 0.322. The relative viability (Bexarotene + Phenformin; first compound 0.253 µM) was 0.305, the relative viability (Bexarotene + Phenformin; first compound 0.8 µM) was 0.348 and the relative viability (Bexarotene + Phenformin; first compound 2.53 µM) was 0.3. For the same cell line, the relative viability (Bexarotene + Phenformin; first compound 8 µM) was 0.307, the relative viability (Bexarotene + OSI-027; first compound 0.08 µM) was 0.448 and the relative viability (Bexarotene + OSI-027; first compound 0.253 µM) was 0.462. It also gave a relative viability (Bexarotene + OSI-027; first compound 0.8 µM) of 0.455, a relative viability (Bexarotene + OSI-027; first compound 2.53 µM) of 0.449 and a relative viability (Bexarotene + OSI-027; first compound 8 µM) of 0.415. For the same cell line, the relative viability (Bexarotene; 0.08 µM) was 1.06, the relative viability (Bexarotene; 0.253 µM) was 0.963 and the relative viability (Bexarotene; 0.8 µM) was 0.954. For the same cell line, the relative viability (Bexarotene; 2.53 µM) was 0.895 and the relative viability (Bexarotene; 8 µM) was 0.893.
For ABC-1, the relative viability (Bexarotene + Phenformin; first compound 0.08 µM) was 0.239, the relative viability (Bexarotene + Phenformin; first compound 0.253 µM) was 0.225 and the relative viability (Bexarotene + Phenformin; first compound 0.8 µM) was 0.215. The relative viability (Bexarotene + Phenformin; first compound 2.53 µM) was 0.303, the relative viability (Bexarotene + Phenformin; first compound 8 µM) was 0.285 and the relative viability (Bexarotene + OSI-027; first compound 0.08 µM) was 0.466. It also gave a relative viability (Bexarotene + OSI-027; first compound 0.253 µM) of 0.582, a relative viability (Bexarotene + OSI-027; first compound 0.8 µM) of 0.565 and a relative viability (Bexarotene + OSI-027; first compound 2.53 µM) of 0.362. It also gave a relative viability (Bexarotene + OSI-027; first compound 8 µM) of 0.449, a relative viability (Bexarotene; 0.08 µM) of 1 and a relative viability (Bexarotene; 0.253 µM) of 0.904. It also gave a relative viability (Bexarotene; 0.8 µM) of 0.892, a relative viability (Bexarotene; 2.53 µM) of 0.851 and a relative viability (Bexarotene; 8 µM) of 0.993.
BEN was tested, and the relative viability (Bexarotene + Trametinib; first compound 0.08 µM) was 0.994, the relative viability (Bexarotene + Trametinib; first compound 0.253 µM) was 1.02 and the relative viability (Bexarotene + Trametinib; first compound 0.8 µM) was 0.943. The relative viability (Bexarotene + Trametinib; first compound 2.53 µM) was 0.804, the relative viability (Bexarotene + Trametinib; first compound 8 µM) was 0.997 and the relative viability (Bexarotene + Phenformin; first compound 0.08 µM) was 0.289. For the same cell line, the relative viability (Bexarotene + Phenformin; first compound 0.253 µM) was 0.27, the relative viability (Bexarotene + Phenformin; first compound 0.8 µM) was 0.268 and the relative viability (Bexarotene + Phenformin; first compound 2.53 µM) was 0.214. For the same cell line, the relative viability (Bexarotene + Phenformin; first compound 8 µM) was 0.279, the relative viability (Bexarotene + OSI-027; first compound 0.08 µM) was 0.294 and the relative viability (Bexarotene + OSI-027; first compound 0.253 µM) was 0.309. It also gave a relative viability (Bexarotene + OSI-027; first compound 0.8 µM) of 0.292, a relative viability (Bexarotene + OSI-027; first compound 2.53 µM) of 0.266 and a relative viability (Bexarotene + OSI-027; first compound 8 µM) of 0.254. It also gave a relative viability (Bexarotene; 0.08 µM) of 1.01, a relative viability (Bexarotene; 0.253 µM) of 0.822 and a relative viability (Bexarotene; 0.8 µM) of 0.868. For the same cell line, the relative viability (Bexarotene; 2.53 µM) was 0.752 and the relative viability (Bexarotene; 8 µM) was 0.87.
CAL-12T showed a relative viability (Bexarotene + Trametinib; first compound 0.08 µM) of 0.349, a relative viability (Bexarotene + Trametinib; first compound 0.253 µM) of 0.286 and a relative viability (Bexarotene + Trametinib; first compound 0.8 µM) of 0.319. For the same cell line, the relative viability (Bexarotene + Trametinib; first compound 2.53 µM) was 0.233, the relative viability (Bexarotene + Trametinib; first compound 8 µM) was 0.319 and the relative viability (Bexarotene + Phenformin; first compound 0.08 µM) was 0.578. For the same cell line, the relative viability (Bexarotene + Phenformin; first compound 0.253 µM) was 0.511, the relative viability (Bexarotene + Phenformin; first compound 0.8 µM) was 0.572 and the relative viability (Bexarotene + Phenformin; first compound 2.53 µM) was 0.513. For the same cell line, the relative viability (Bexarotene + Phenformin; first compound 8 µM) was 0.519, the relative viability (Bexarotene + OSI-027; first compound 0.08 µM) was 0.523 and the relative viability (Bexarotene + OSI-027; first compound 0.253 µM) was 0.416. It also gave a relative viability (Bexarotene + OSI-027; first compound 0.8 µM) of 0.49, a relative viability (Bexarotene + OSI-027; first compound 2.53 µM) of 0.439 and a relative viability (Bexarotene + OSI-027; first compound 8 µM) of 0.441. It also gave a relative viability (Bexarotene; 0.08 µM) of 0.989, a relative viability (Bexarotene; 0.253 µM) of 0.992 and a relative viability (Bexarotene; 0.8 µM) of 0.981. For the same cell line, the relative viability (Bexarotene; 2.53 µM) was 0.844 and the relative viability (Bexarotene; 8 µM) was 0.917.
For COR-L23, the relative viability (Bexarotene + Trametinib; first compound 0.08 µM) was 0.747, the relative viability (Bexarotene + Trametinib; first compound 0.253 µM) was 0.72 and the relative viability (Bexarotene + Trametinib; first compound 0.8 µM) was 0.501. It also gave a relative viability (Bexarotene + Trametinib; first compound 2.53 µM) of 0.553, a relative viability (Bexarotene + Trametinib; first compound 8 µM) of 0.547 and a relative viability (Bexarotene + Phenformin; first compound 0.08 µM) of 0.411. It also gave a relative viability (Bexarotene + Phenformin; first compound 0.253 µM) of 0.512, a relative viability (Bexarotene + Phenformin; first compound 0.8 µM) of 0.395 and a relative viability (Bexarotene + Phenformin; first compound 2.53 µM) of 0.383. The relative viability (Bexarotene + Phenformin; first compound 8 µM) was 0.364, the relative viability (Bexarotene + OSI-027; first compound 0.08 µM) was 0.807 and the relative viability (Bexarotene + OSI-027; first compound 0.253 µM) was 0.883. For the same cell line, the relative viability (Bexarotene + OSI-027; first compound 0.8 µM) was 0.579, the relative viability (Bexarotene + OSI-027; first compound 2.53 µM) was 0.679 and the relative viability (Bexarotene + OSI-027; first compound 8 µM) was 0.715. It also gave a relative viability (Bexarotene; 0.08 µM) of 1.16, a relative viability (Bexarotene; 0.253 µM) of 0.979 and a relative viability (Bexarotene; 0.8 µM) of 0.936. It also gave a relative viability (Bexarotene; 2.53 µM) of 0.874 and a relative viability (Bexarotene; 8 µM) of 0.951.
COR-L 105 was tested, and the relative viability (Bexarotene + Trametinib; first compound 0.08 µM) was 0.48, the relative viability (Bexarotene + Trametinib; first compound 0.253 µM) was 0.426 and the relative viability (Bexarotene + Trametinib; first compound 0.8 µM) was 0.478. For the same cell line, the relative viability (Bexarotene + Trametinib; first compound 2.53 µM) was 0.451, the relative viability (Bexarotene + Trametinib; first compound 8 µM) was 0.465 and the relative viability (Bexarotene + Phenformin; first compound 0.08 µM) was 0.614. It also gave a relative viability (Bexarotene + Phenformin; first compound 0.253 µM) of 0.472, a relative viability (Bexarotene + Phenformin; first compound 0.8 µM) of 0.519 and a relative viability (Bexarotene + Phenformin; first compound 2.53 µM) of 0.517. The relative viability (Bexarotene + Phenformin; first compound 8 µM) was 0.569, the relative viability (Bexarotene + OSI-027; first compound 0.08 µM) was 0.765 and the relative viability (Bexarotene + OSI-027; first compound 0.253 µM) was 0.677. The relative viability (Bexarotene + OSI-027; first compound 0.8 µM) was 0.818, the relative viability (Bexarotene + OSI-027; first compound 2.53 µM) was 0.8 and the relative viability (Bexarotene + OSI-027; first compound 8 µM) was 0.613. For the same cell line, the relative viability (Bexarotene; 0.08 µM) was 1.13, the relative viability (Bexarotene; 0.253 µM) was 1.02 and the relative viability (Bexarotene; 0.8 µM) was 0.963. For the same cell line, the relative viability (Bexarotene; 2.53 µM) was 0.987 and the relative viability (Bexarotene; 8 µM) was 0.892.
Calu-6 gave a relative viability (Bexarotene; 0.08 µM) of 1.04, a relative viability (Bexarotene; 0.253 µM) of 1.03 and a relative viability (Bexarotene; 0.8 µM) of 0.955. It also gave a relative viability (Bexarotene; 2.53 µM) of 1.02 and a relative viability (Bexarotene; 8 µM) of 1.06.
